{
  "source": "PubChem BioAssay (NCI)",
  "test_in_all_cases": "growth of human tumour cells (NCI), 48 h",
  "key": {"[1]": {"system": "U251 CNS"}, "[2]": {"system": "KM12 colon"}, "[3]": {"system": "OVCAR-8 ovarian"}, "[4]": {"system": "EKVX NSCLC"}, "[5]": {"system": "SK-MEL-28 melanoma"}, "[6]": {"system": "SNB-19 CNS"}, "[7]": {"system": "SK-MEL-2 melanoma"}, "[8]": {"system": "MCF7 breast"}, "[9]": {"system": "MALME-3M melanoma"}, "[10]": {"system": "SK-OV-3 ovarian"}, "[11]": {"system": "SNB-75 CNS"}, "[12]": {"system": "ACHN renal"}, "[13]": {"system": "SN12C renal"}, "[14]": {"system": "NCI-H226 lung"}, "[15]": {"system": "DU-145 prostate"}, "[16]": {"system": "NCI-H522 lung"}, "[17]": {"system": "CAKI-1 renal"}, "[18]": {"system": "LOX IMVI melanoma"}, "[19]": {"system": "OVCAR-4 ovarian"}, "[20]": {"system": "NCI-H23 lung"}, "[21]": {"system": "A549 NSCLC"}, "[22]": {"system": "M14 melanoma"}, "[23]": {"system": "T-47D breast"}, "[24]": {"system": "HOP-62 NSCLC"}, "[25]": {"system": "UACC-257 melanoma"}, "[26]": {"system": "NCI-H460 lung"}, "[27]": {"system": "MOLT-4 leukemia"}, "[28]": {"system": "HOP-92 NSCLC"}},
  "note": "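Five concentrations, 48 hours, 96-well plates. Abbreviation: GI50, concentration required for 50% inhibition of growth. The concentration for full growth arrest is given as TGI.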",
  "data": [
    {"smiles": "Cc1nc(N)sc1-c1csc(Nc2ccc(C(F)(F)F)cc2)n1", "values": [
      {"measurement": "GI50", "setting": "[1]", "result": 7.17, "unit": "µM"},
      {"measurement": "TGI", "setting": "[1]", "result": 26.2, "unit": "µM"},
      {"measurement": "GI50", "setting": "[2]", "result": 3.55, "unit": "µM"},
      {"measurement": "TGI", "setting": "[2]", "result": 14.5, "unit": "µM"},
      {"measurement": "GI50", "setting": "[3]", "result": 11.1, "unit": "µM"},
      {"measurement": "TGI", "setting": "[3]", "result": 25.6, "unit": "µM"},
      {"measurement": "GI50", "setting": "[4]", "result": 3.83, "unit": "µM"},
      {"measurement": "TGI", "setting": "[4]", "result": 17.6, "unit": "µM"},
      {"measurement": "GI50", "setting": "[5]", "result": 10.2, "unit": "µM"},
      {"measurement": "TGI", "setting": "[5]", "result": 21.9, "unit": "µM"},
      {"measurement": "GI50", "setting": "[6]", "result": 11.9, "unit": "µM"},
      {"measurement": "TGI", "setting": "[6]", "result": 24.8, "unit": "µM"},
      {"measurement": "GI50", "setting": "[7]", "result": 1.76, "unit": "µM"},
      {"measurement": "TGI", "setting": "[7]", "result": 16.4, "unit": "µM"},
      {"measurement": "GI50", "setting": "[8]", "result": 2.65, "unit": "µM"},
      {"measurement": "TGI", "setting": "[8]", "result": 16, "unit": "µM"},
      {"measurement": "GI50", "setting": "[9]", "result": 4.11, "unit": "µM"},
      {"measurement": "TGI", "setting": "[9]", "result": 17.6, "unit": "µM"},
      {"measurement": "GI50", "setting": "[10]", "result": 16.4, "unit": "µM"},
      {"measurement": "TGI", "setting": "[10]", "result": 33.4, "unit": "µM"},
      {"measurement": "GI50", "setting": "[11]", "result": 3.41, "unit": "µM"},
      {"measurement": "TGI", "setting": "[11]", "result": 16.9, "unit": "µM"},
      {"measurement": "GI50", "setting": "[12]", "result": 2.75, "unit": "µM"},
      {"measurement": "TGI", "setting": "[12]", "result": 13.9, "unit": "µM"},
      {"measurement": "GI50", "setting": "[13]", "result": 6.72, "unit": "µM"},
      {"measurement": "TGI", "setting": "[13]", "result": 21, "unit": "µM"},
      {"measurement": "GI50", "setting": "[14]", "result": 2.72, "unit": "µM"},
      {"measurement": "TGI", "setting": "[14]", "result": 24.3, "unit": "µM"},
      {"measurement": "GI50", "setting": "[15]", "result": 4.59, "unit": "µM"},
      {"measurement": "TGI", "setting": "[15]", "result": 17.7, "unit": "µM"},
      {"measurement": "GI50", "setting": "[16]", "result": 4.75, "unit": "µM"},
      {"measurement": "TGI", "setting": "[16]", "result": 18.7, "unit": "µM"},
      {"measurement": "GI50", "setting": "[17]", "result": 3.62, "unit": "µM"},
      {"measurement": "TGI", "setting": "[17]", "result": 17.5, "unit": "µM"},
      {"measurement": "GI50", "setting": "[18]", "result": 2.44, "unit": "µM"},
      {"measurement": "TGI", "setting": "[18]", "result": 9.9, "unit": "µM"},
      {"measurement": "GI50", "setting": "[19]", "result": 3.63, "unit": "µM"},
      {"measurement": "TGI", "setting": "[19]", "result": 16.7, "unit": "µM"},
      {"measurement": "GI50", "setting": "[20]", "result": 5.57, "unit": "µM"},
      {"measurement": "TGI", "setting": "[20]", "result": 21.7, "unit": "µM"},
      {"measurement": "GI50", "setting": "[21]", "result": 7.34, "unit": "µM"},
      {"measurement": "TGI", "setting": "[21]", "result": 35.8, "unit": "µM"},
      {"measurement": "GI50", "setting": "[22]", "result": 3.25, "unit": "µM"},
      {"measurement": "TGI", "setting": "[22]", "result": 14.8, "unit": "µM"},
      {"measurement": "GI50", "setting": "[23]", "result": 1.65, "unit": "µM"},
      {"measurement": "TGI", "setting": "[23]", "result": 10.1, "unit": "µM"},
      {"measurement": "GI50", "setting": "[24]", "result": 7.86, "unit": "µM"},
      {"measurement": "TGI", "setting": "[24]", "result": 26.4, "unit": "µM"},
      {"measurement": "GI50", "setting": "[25]", "result": 9.37, "unit": "µM"},
      {"measurement": "TGI", "setting": "[25]", "result": 22.1, "unit": "µM"},
      {"measurement": "GI50", "setting": "[26]", "result": 3.44, "unit": "µM"},
      {"measurement": "TGI", "setting": "[26]", "result": 15.7, "unit": "µM"},
      {"measurement": "GI50", "setting": "[27]", "result": 2.71, "unit": "µM"},
      {"measurement": "TGI", "setting": "[27]", "result": 21.1, "unit": "µM"},
      {"measurement": "GI50", "setting": "[28]", "result": 2.63, "unit": "µM"},
      {"measurement": "TGI", "setting": "[28]", "result": 15, "unit": "µM"}
    ]}
  ]
}
